Measured values from patent US12630553B2 (Ascentage Pharma (Suzhou) Co., Ltd., priority 2020, dated 2026).
Counter-ions that a name gives are not always drawn.

How the values were obtained:
[1] = Stability test of salts of compound 1 (HPLC, XRD); type: physicochemical
Procedure: 30 mg of the compound was weighed and added into an 8 mL glass bottle, and then was placed under the condition of room temperature (25° C., closed), high humidity (room temperature/75% RH, open) and light (25° C. closed, white light: 5000 Lux, ultraviolet 282 μW/cm2). samples were taken on the 5th, 10th, and 30th day for detection (HPLC, XRD).

[2] = Dynamic water adsorption (DVS) test of compound 1 solid forms; type: physicochemical; details: about 10 mg solid form
Procedure: About 10 mg of the solid form of the compound 1 was taken for dynamic water adsorption (DVS) test.

[3] = Illumination 5K lux closed, day 5
[4] = Illumination 5K lux closed, day 10

| Compound | TRS (%) ([1]; 25° C. closed, day 5) | XPRD ([1]; 25° C. closed, day 5) | TRS (%) ([1]; 25° C. closed, day 10) | XPRD ([1]; 25° C. closed, day 10) | TRS (%) ([1]; 25° C. closed, day 30) | XPRD ([1]; 25° C. closed, day 30) | TRS (%) ([1]; 25° C./75% RH open, day 5) | XPRD ([1]; 25° C./75% RH open, day 5) | TRS (%) ([1]; 25° C./75% RH open, day 10) | XPRD ([1]; 25° C./75% RH open, day 10) | TRS (%) ([1]; 25° C./75% RH open, day 30) | XPRD ([1]; 25° C./75% RH open, day 30) | TRS (%) [1, 3] [%] | XPRD [1, 3] | TRS (%) [1, 4] [%] | XPRD [1, 4] | TRS (%) ([1]; Initial sample, day 0) | XPRD ([1]; Initial sample, day 0) | XRPD after DVS [2] |
| --- | --- | --- | --- | --- | --- | --- | --- | --- | --- | --- | --- | --- | --- | --- | --- | --- | --- | --- | --- |
| CN[C@@H](C)C(=O)N[C@H]1CN(S(=O)(=O)c2cccc(S(=O)(=O)N3CC[C@H]4CC[C@@H](C(=O)NC(c5ccccc5)c5ccccc5)N4C(=O)[C@@H](NC(=O)[C@H](C)NC)C3)c2)CC[C@H]2CCC(C(=O)NC(c3ccccc3)c3ccccc3)N2C1=O (stereo partly drawn) [Compound 1 di-p-toluenesulfonate amorphous Form XVI] | 1.66 | Amorphous | 1.71 | Amorphous | 1.80 | Amorphous | 1.56 | Amorphous | 1.66 | Amorphous | 1.88 | Amorphous | 1.89 | Amorphous | 2.40 | Amorphous | 1.66 | Amorphous | – |
| CN[C@@H](C)C(=O)N[C@H]1CN(S(=O)(=O)c2cccc(S(=O)(=O)N3CC[C@H]4CC[C@@H](C(=O)NC(c5ccccc5)c5ccccc5)N4C(=O)[C@@H](NC(=O)[C@H](C)NC)C3)c2)CC[C@H]2CCC(C(=O)NC(c3ccccc3)c3ccccc3)N2C1=O (stereo partly drawn) [Compound 1 dimethanesulfonate crystalline Form XVIII] | 2.51 | Crystalline Form | 2.57 | Crystalline | 2.55 | Crystalline | – | – | – | – | – | – | 2.63 | Crystalline | 2.64 | Crystalline | 2.44 | Crystalline | No change |
| CN[C@@H](C)C(=O)N[C@H]1CN(S(=O)(=O)c2cccc(S(=O)(=O)N3CC[C@H]4CC[C@@H](C(=O)NC(c5ccccc5)c5ccccc5)N4C(=O)[C@@H](NC(=O)[C@H](C)NC)C3)c2)CC[C@H]2CCC(C(=O)NC(c3ccccc3)c3ccccc3)N2C1=O (stereo partly drawn) [XIV] | – | – | – | – | – | – | – | – | – | – | – | – | – | – | – | – | – | – | No change |
| CN[C@@H](C)C(=O)N[C@H]1CN(S(=O)(=O)c2cccc(S(=O)(=O)N3CC[C@H]4CC[C@@H](C(=O)NC(c5ccccc5)c5ccccc5)N4C(=O)[C@@H](NC(=O)[C@H](C)NC)C3)c2)CC[C@H]2CCC(C(=O)NC(c3ccccc3)c3ccccc3)N2C1=O (stereo partly drawn) [compound 1 dihydrochloride amorphous form V] | 0.72 | Amorphous | 0.77 | Amorphous | 0.83 | Amorphous | 0.81 | Amorphous | 0.77 | Amorphous | 0.79 | Amorphous | 1.81 | Amorphous | 2.54 | Amorphous | 0.73 | Amorphous | No change |
| CN[C@@H](C)C(=O)N[C@H]1CN(S(=O)(=O)c2cccc(S(=O)(=O)N3CC[C@H]4CC[C@@H](C(=O)NC(c5ccccc5)c5ccccc5)N4C(=O)[C@@H](NC(=O)[C@H](C)NC)C3)c2)CC[C@H]2CCC(C(=O)NC(c3ccccc3)c3ccccc3)N2C1=O (stereo partly drawn) [compound 1 disulfate amorphous form XXIII] | 2.45 | Amorphous | 2.72 | Amorphous | 4.83 | Amorphous | 2.69 | Amorphous | 3.14 | Amorphous | 5.13 | Amorphous | 3.66 | Amorphous | 5.50 | Amorphous | 1.96 | Amorphous | – |
